# In ChEMBL document CHEMBL1152590, “Computational modeling of novel inhibitors targeting the Akt pleckstrin homology domain” (Bioorg Med Chem, 2009):
# System: Caco-2
# Assay: Permeability across human Caco-2 cells
row,SMILES,logPapp
1,CCCc1nc2c(C)cc(-c3nc4ccccc4n3C)cc2n1Cc1ccc(-c2ccccc2C(=O)O)cc1,-4.82
2,CCOC(=O)[C@H](CCc1ccccc1)N[C@@H](C)C(=O)N1CCC[C@H]1C(=O)O,-5.64
3,CN/C(=N/CCSCc1nc[nH]c1C)NC#N [CIMETIDINE],-5.89
4,Clc1cccc(Cl)c1N=C1NCCN1 [CLONIDINE],-4.59
5,NCCc1ccc(O)c(O)c1 [DOPAMINE],-5.03
6,CNC[C@H](O)c1ccc(O)c(O)c1 [EPINEPHRINE],-6.02
7,CN1CCC[C@H]1c1cccnc1 [NICOTINE],-4.71
8,C=CCOc1ccccc1OCC(O)CNC(C)C (stereo unspecified) [OXPRENOLOL],-4.68
9,c1ccc(C2(N3CCCCC3)CCCCC2)cc1 [PHENCYCLIDINE],-4.61
10,CC(C)NCC(O)COc1cccc2[nH]ccc12 (stereo unspecified) [PINDOLOL],-4.78
11,CC(=O)[C@H]1CC[C@H]2[C@@H]3CCC4=CC(=O)CC[C@]4(C)[C@H]3CC[C@]12C [PROGESTERONE],-4.37
12,CNC(=C[N+](=O)[O-])NCCSCc1ccc(CN(C)C)o1 [RANITIDINE],-6.31
13,O=C(O)c1ccccc1O [SALICYLIC ACID],-4.79
14,O=C(O)c1cc(/N=N/c2ccc(S(=O)(=O)Nc3ccccn3)cc2)ccc1O [SULFASALAZINE],-6.33
15,Cn1c(=O)c2[nH]cnc2n(C)c1=O.O [THEOPHYLLINE],-4.35
16,CC(C)(C)NC[C@H](O)COc1nsnc1N1CCOCC1 [TIMOLOL],-4.85
